Data set [1] concerns XBP1 mRNA splicing in HEK293T cells. The experiment in a line: XBP1 mRNA splicing by RT-PCR in HEK293T cells. The class given is cell-based, human. The settings on record: [AD60] = 1 μM, 4 hr. On the procedure: To examine the effects of IPA in living cells, we monitored the UPR in HEK293T cells using RT-PCR to measure splicing of XBP1 mRNA. […] At a concentration of 2 μM IPA, splicing was induced within 2 hr (lane 5). […] We used tunicamycin (Tm), which induces ER stress by blocking N-linked glycosylation, as a positive control to induce the UPR (Figure 2A, lanes 7, and Figure 2B, lane 4).
Cells were lysed and total RNA was collected (Total RNA Kit 1, EZ-RNA, EZNA [USA]). PolyA^+ mRNA was reverse transcribed with M-MLV (Invitrogen), and the resulting cDNA was used as a template for PCR amplification across the fragment of XBP1 cDNA containing the intron. Primers used to amplify human XBP1: 5′-[…]-3′ and 5′-[…]-3′. To amplify murine XBP1: 5′-[…]-3′ and 5′-[…]-3′. PCR conditions were as follows: 95°C for 5 min, 95°C for 1 min, 58°C for 30 s, 72°C for 30 s, and 72°C for 5 min, with 20 cycles of amplification. PCR products were resolved on a 2.5% agarose tris-acetate EDTA (TAE) gel. As previously reported, a hybrid amplicon species consisting of unspliced Xbp-1 annealed to spliced Xbp-1 can also be produced through this PCR reaction and was visible as a slower migrating band above the unspliced amplicon. The same cDNA was used as template for PCR of DERLIN-3 and HERPUD1, both ATF6 targets, and GAPDH, which was used as loading control. Primers used included the following: DERLIN-3, 5′-[…]-3′ and 5′-[…]-3′; HERPUD1-1, 5′-[…]-3′ and 5′-[…]-3′; GAPDH, 5′-[…]-3′ and 5′-[…]-3′. PCR conditions were: 95°C × 5 min, 95°C × 1 min, 56°C × 30 s, 72°C for 30 s for 25 cycles, 72°C for 5 min at 4°C. PCR products were resolved on a 2% agarose TAE gel.

Data set [2] deals with XBP1 mRNA-splicing reporter (IRE1-mediated) in HEK293T cells. The experiment in a line: XBP1-luciferase splicing reporter in HEK293T cells. The class given is cell-based. The settings on record: Homo sapiens, HEK-293T, in the presence of Tm (2 μg/ml), read-out: IC50 of XBP1-luciferase-splicing reporter activation. The text has this: A plasmid encoding a modified ER stress reporter construct consisting of a C-terminally FLAG-tagged firefly luciferase coding sequence fused to an N-terminal hemagglutinin-tagged tandem repeat of a partial sequence of XBP1 of human origin lacking its DNA-binding domain and containing the IRE1-cognate intron (pCAX-HA-2xXBP1ΔDBD(anATG)-LUC-F, kind gift of Takao Iwawaki [[Hosoda et al., 2010]]), was used as a template to generate a retroviral expression construct. The coding sequence of the reporter was amplified by PCR using primers with engineered BamHI and EcoRI sites and was subsequently cloned into the cognate sites of the retroviral expression vector pBABE.puro (Addgene) to generate construct DAA-A171. DAA-A171 was used to generate recombinant retroviral particles using standard methods and the resulting retroviral supernatant was used to transduce HEK293T cells, which were then subsequently selected with puromycin to create a stable reporter cell line.

Data set [3] deals with protein translation in HEK293T cells. Nature of the data set: Metabolic labeling: [35S] methionine incorporation in HEK293T cells. The class given is cell-based. The settings on record: IPA 1 μM + GSK 1 μM. On the procedure: HEK293T cells (500,000 cells/ml) were plated in 12-well flat bottom culture cluster dishes (Costar, Fisher Scientific) 24 hr before the experiment. IPA (1 μM), or a combination of IPA with GSK2606414 (TRC inc. […] Cells lysates were kept on ice for 30 min before high-speed centrifugation followed by denaturation at 95°C. The samples were resolved on an SDS-polyacrylamide gel, which were then stained with Coomassie blue to ascertain protein loading. […] The resulting autoradiograms were quantified using ImageQuant software (Molecular Dynamics).

Data set [4] relates to PERK and eIF2α phosphorylation in HEK293T cells. The experiment in a line: PERK mobility shift and eIF2α phosphorylation by immunoblotting in HEK293T cells. The class given is cell-based. On the procedure:
To evaluate effects of IPA on the PERK branch, we measured the phosphorylation state of PERK and eIF2α by Western blotting. […] We also monitored PERK activation by phosphorylation of eIF2α, detected with a phospho-eIF2α-specific antibody (Figure 3C).
Cells were lysed in 50 mM Tris-HCl, 2% SDS, 10% glycerol, 0.01% bromophenol blue, pH 6.8 supplemented with phosphatase inhibitors (Sigma) and protease inhibitors (Roche). 30 μg to 50 μg of total protein was loaded on each lane of 8% or 10% SDS-PAGE gels. The separated proteins were then transferred onto nitrocellulose membranes for immunoblotting. The following antibodies and dilutions were used: anti-β-actin 1:10,000 (A5441, Sigma), anti-total PERK at 1:1000 (C33E10, Cell Signaling Technology), anti-phospho eIF2α at 1:1000 (3597S, Cell Signaling Technology), anti-total eIF2α at 1:1000 (L57A5, Cell Signaling Technology). After overnight incubation with primary antibody, membranes were washed in PBS with 0.05% Tween and incubated in HRP-coupled secondary antibody anti-rabbit (611–1302, Rockland) or anti-mouse (610–1302, Rockland) diluted at 1:5000 in wash buffer. Immunoreactive bands were detected by chemiluminescence.

The test system of the next data set is PERK. Set-up: method as in Axten et al., 2012; Moreno et al., 2013. The settings on record: ref Axten et al., 2012; Moreno et al., 2013; read-out: EC50 of PERK inhibition in cells; cited from earlier work.
The next data set has as its system HEK293T cells. The experiment in a line: HEK293T cell viability (CellTiter-Blue, 24 hr). The class given is cell-based. The settings on record: 24 hr, 1 μM, listed as GSK. On the procedure: HEK293T cells were grown in DMEM (Sigma) complete media containing 10% FBS, 10 units/ml penicillin (Invitrogen), and 10 μg/ml streptomycin (Invitrogen). Cells were plated at a density of 30,000 cells per well in 96-well black plates with clear flat bottoms (Corning, Sigma-Aldrich) 24 hr before the experiment. A 12-point semi-logarithmic dilution series of compounds was made starting at 30 μM not to exceed 0.1% DMSO after final dilution into the growth media. Viability assays were conducted over the course of 24 hr. Cell viability was determined using CellTiter-Blue (Promega) following the manufacturer's instructions. […] Experiments were done in triplicate, and mean values were computed for each data point.
A general note: Alamar Blue is a resazurin reagent that responds to reducing activity.

Entries after “also recorded” stand apart in the source; their conditions may differ.

Regarding `Nc1ncnc2c1c(-c1ccc(NC(=O)Nc3cccc(C(F)(F)F)c3)cc1)nn2C1CCCC1` [AD60, reference compound], in data set [1] (Tm), the “effect on Tm-induced XBP1 mRNA splicing” value was “inhibited Tm-induced XBP1 mRNA splicing”. For the same compound, the “effect on IPA-induced XBP1 mRNA splicing” value in data set [1] (up to highest IPA concentration tested) is listed as “fully ablated IPA-induced XBP1 mRNA splicing”. In addition, the half-maximal inhibitory concentration (IC50) in data set [2] is 750 nM.

Take `Cn1cc(-c2ccc3c(c2)CCN3C(=O)Cc2cccc(C(F)(F)F)c2)c2c(N)ncnc21` [GSK2606414, 7-methyl-5-(1-{[3-(trifluoromethyl)phenyl]acetyl}-2,3-dihydro-1H-indol-5-yl)-7H-p yrrolo[2,3-d]pyrimidin-4-amine, reference compound]: the “effect on translation in IPA-treated cells” value in data set [3] is recorded as “restored translation to baseline levels”. The “effect of compound alone on the PERK pathway” value in data set [4] (GSK 1 μM alone) is recorded as “No effect on the pathway was observed”. Besides, the “effect on IPA-induced PERK and eIF2α phosphorylation” value in data set [4] (GSK 1 μM, IPA 0.5 and 1 μM) is “abolished IPA-induced PERK and eIF2α phosphorylation”. In the data set on PERK, the EC50 is […]. In addition, in the data set with HEK293T cells, the “effect on HEK293T cell viability at 1 μM” value was “No effect on viability was observed; also recorded: no cell toxicity”.

By IC50 is commonly meant the concentration that inhibits the measured activity by half. In general, EC50 refers to the concentration giving half of the maximal effect.
